The target of assay [1] is T1, PLA2 (Sus scrofa, UniProt P00592).
T1 construct: from tissue; host or cells: hog pancreas
Nature of the assay: Inhibitory activity on PLA2. The class given is biochemical, hog. How it is done:
A reaction solution including 50 mM tris-HCl buffer (pH7.5, 874 μl; containing 100 mM sodium chloride, 1 mM EDTA), 1M calcium chloride (6 μl), 1% bovine serum albumin (10 μl) and 2.5 mM 10PY-PC (10 μl), was prepared. To the solution were added solutions of a test compound in respective concentrations or water (50 μl), and a solution of 10 mU/ml PLA2 (derived from hog pancreas) (50 μl). The appearance of fluorescence was measured (Ex=345 nm, Em=396 nm). Percentage of the strength of fluorescence in the presence of a test compound was calculated when the strength of that in the absence thereof was regarded as 100%, and therefrom IC50 value was calculated.
(§1) In the methods hereinbefore described, 10PY-PC represents 3'-palmitoyl-2-(1-opyrenedecanoyl)-L-α-phosphatidylcholine, HEPES represents 4-(2-hydroxyethyl)-1-piperazineethanesulfonic acid, and BAPNA represents α-N-benzoyl-DL-arginine-p-nitroanilide hydrochloride.

The next assay deals with T2, trypsin (Bos taurus, UniProt P00760).
T2 construct: from tissue; host or cells: bovine pancreas
T2 sequence (P00760 24-246): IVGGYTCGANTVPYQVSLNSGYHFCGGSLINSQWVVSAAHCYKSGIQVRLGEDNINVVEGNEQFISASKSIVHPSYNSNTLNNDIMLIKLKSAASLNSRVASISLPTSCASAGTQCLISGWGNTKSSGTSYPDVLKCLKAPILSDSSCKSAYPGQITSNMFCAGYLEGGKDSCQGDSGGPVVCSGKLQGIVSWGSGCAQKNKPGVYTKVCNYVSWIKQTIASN
In words: Inhibitory activity on trypsin. The class given is biochemical. To be noted: trypsin derived from bovine pancreas; BAPNA substrate; pH 8.0; 30° C.; absorbance at 405 nm. How it is done: (2) Inhibitory activity on trypsin
To a mixture of a 0.2 M HEPES·sodium hydroxide buffer solution (pH 8.0, 100 μl) and distilled water (640 μl), were added solutions of a test compound in respective concentrations or water (10 μl), and a solution of 80 mU/ml trypsin (derived from bovine pancreas) (50 μl) and then the mixture was preincubated for one minute at 30° C. To the solution thus obtained was added 2.5 mM BAPNA (200 μl) and the mixture was incubated at 30° C. The absorbance at 405 nm was measured. Percentage (%) of the absorbance in the presence of a test compound was calculated when the absorbance in the absence thereof was regarded as 100%, and therefrom IC50 value was calculated.
as §1

In assay [2] the test system is PLA2. The conditions noted are these: Japanese Journal of Clinical Medicine, 48 (1), 165-172, 1990; cited from earlier work.

SMILES strings stand for the structures. Where a name gives a salt, the structure may show the parent alone.

T1 sequence (P00592 23-146): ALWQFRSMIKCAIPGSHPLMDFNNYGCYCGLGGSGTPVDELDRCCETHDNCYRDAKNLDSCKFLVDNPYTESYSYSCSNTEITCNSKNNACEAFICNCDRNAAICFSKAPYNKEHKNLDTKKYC

On to `CCOC(=O)C(C(=O)OCC)N(CCCOC)C(=O)/C(C)=C/c1ccc(C(=O)Oc2ccc(C(=N)N)cc2)cc1` [1(b), p-(p-Amidinophenoxycarbonyl)-α-methylcinnamic acid N-1,1-bis(ethoxycarbonyl)methyl-N-3-methoxypropylamide acetate], for which the IC50 on PLA2 [1] was 124000 nM; on trypsin, 170 nM.

`CCOC(=O)CN(CCCOC)C(=O)/C(C)=C/c1ccc(C(=O)Oc2ccc(C(=N)N)cc2)cc1` [Example 1(a), acetate]: the IC50 against PLA2 [1] worked out at 106000 nM; on trypsin, 253 nM.

As for `CCOC(=O)CCN(CCCOC)C(=O)/C(C)=C/c1ccc(C(=O)Oc2ccc(C(=N)N)cc2)cc1` [Example 1, p-(p-Amidinophenoxycarbonyl)-α-methylcinnamic acid N-2-ethoxycarbonylethyl-N-3-methoxypropylamide hydrochloride], the IC50 was found to be 107000 nM on PLA2 [1] and 136 nM against trypsin.

In turn, `COCCCN(CC(=O)O)C(=O)/C(C)=C/c1ccc(C(=O)Oc2ccc(C(=N)N)cc2)cc1` [Example 3, p-(p-Amidinophenoxycarbonyl)-α-methylcinnamic acid N-carboxylmethyl-N-3-methoxypropylamide methanesulfonate] gave an IC50 at trypsin of 140 nM.

Take `CN(C)C(=O)COC(=O)Cc1ccc(OC(=O)c2ccc(NC(=N)N)cc2)cc1` [camostat mesylate]: the “inhibitory activity on PLA2 (in words)” value in the assay on PLA2 [2] is reported as “inhibitory activity on PLA2”.

In the case of `N=C(N)Nc1ccc(C(=O)Oc2ccc3cc(C(=N)N)ccc3c2)cc1` [nafamostat mesylate], in the assay with PLA2 [2], the “inhibitory activity on PLA2 (in words)” value is given as “inhibitory activity on PLA2”.
